According to ChEMBL document CHEMBL5252563, “Structure-activity relationship studies of anti-bunyaviral cap-dependent endonuclease inhibitors” (Bioorg Med Chem Lett, 2023):

Legend:
Junin virus [1] = test: Antiviral activity against Junin virus; assay type: functional, organism-based; settings: Mammarenavirus juninense
[2] = test system: Mammarenavirus choriomeningitidis; test: Antiviral activity against Lymphocytic choriomeningitis virus; assay type: functional, organism-based
[3] = Metabolic stability in human liver microsomes; assay type: ADME, Microsome
[4] = Metabolic stability in rat liver microsomes; assay type: ADME, Microsome
[5] = Bioavailability in rat at 2 umol/kg, po or 1 umol/kg, iv administered as cassette dose; assay type: ADME, organism-based; settings: in vivo, at 2 µmol/kg
[6] = AUC in rat at 1 umol/kg, iv administered as cassette dose; assay type: ADME, organism-based; design: dose 1 µmol/kg, route iv; settings: in vivo
[7] = Elimination half-life in rat at 2 umol/kg, po or 1 umol/kg, iv administered as cassette dose; assay type: ADME, organism-based; settings: in vivo, dose 2 µmol/kg, read-out: LambdaZ (converted)
[8] = Unbound fraction in rat serum at 2 umol/kg, po or 1 umol/kg, iv administered as cassette dose; assay type: ADME, organism-based; settings: at 2 µmol/kg
[9] = test system: Mammarenavirus choriomeningitidis; test: Potency index, ratio of ribavirin EC50 to test compound EC50 for antiviral activity against Lymphocytic choriomeningitis virus; assay type: functional
Junin virus [10] = test: Potency index, ratio of ribavirin EC50 to test compound EC50 for antiviral activity against Junin virus; assay type: functional, Mammarenavirus juninense

Row | SMILES | EC50 (Junin virus [1]) [nM] | EC50 [2] [nM] | further results
1 | COCCN1CN(C2c3ccccc3CCc3ccccc32)n2cc(C(=O)O)c(=O)c(O)c2C1=O | 5 | 5.3 | –
2 | Cc1ccc2c(c1)C(N1CN(C(C)C)C(=O)c3c(O)c(=O)c(C(=O)O)cn31)c1cc(C)ccc1CC2 | 176 | 100 | –
3 | CCN(CC)CCN1CN(C2c3ccccc3CCc3ccccc32)n2cc(C(=O)O)c(=O)c(O)c2C1=O | > 1000 | > 1000 | –
4 | CC(C)N1CN(Cc2ccccc2-c2ccccc2)n2cc(C(=O)O)c(=O)c(O)c2C1=O | 437 | 499 | –
5 | O=C(Nc1nnn[nH]1)c1cn2c(c(O)c1=O)C(=O)N(CC1CC1)CN2C1c2ccccc2CCc2ccccc21 | 404 | 284 | –
6 | O=C(NO)c1cn2c(c(O)c1=O)C(=O)N(CC1CC1)CN2C1c2ccccc2CCc2ccccc21 | 120 | 109 | –
7 | O=C(O)c1cn2c(c(O)c1=O)C(=O)N(CC1CCCC1)CN2C1c2ccccc2CCc2ccccc21 | 25 | 17 | –
8 | Cc1cccc2c1CCc1c(C)cccc1C2N1CN(C(C)C)C(=O)c2c(O)c(=O)c(C(=O)O)cn21 | 3.1 | 1.7 | –
9 | CCN1CN(C2c3ccccc3CCc3ccccc32)n2cc(C(=O)O)c(=O)c(O)c2C1=O | 3.3 | 6.2 | –
10 | CC(C)N1CN(C2c3ccccc3CCc3ccccc32)n2cc(C(=O)O)c(=O)c(O)c2C1=O | 2.4 | 4.5 | Stability [3]: 107%; Stability [4]: 81.8%; bioavailability [5]: 10.1%; AUC [6]: 0.928 µM·h; half-life [7]: 2 h; fraction unbound [8]: 0.00293; Ratio EC50 [9]: 1000; Ratio EC50 (Junin virus [10]): 1000
11 | CC(C)N1CN(C2c3ccccc3CSc3ccccc32)n2cc(C(=O)O)c(=O)c(O)c2C1=O (stereo not drawn) | 3.6 | 8 | Ratio EC50 [9]: 1000; Ratio EC50 (Junin virus [10]): 1000
12 | COC(=O)c1cn2c(c(O)c1=O)C(=O)N(CC1CC1)CN2C1c2ccccc2CCc2ccccc21 | 271 | 305 | –
13 | O=C(O)c1cn2c(c(O)c1=O)C(=O)N(C1CC1)CN2C1c2ccccc2CCc2ccccc21 | 13.4 | 7.8 | –
14 | O=C(O)c1cn2c(c(O)c1=O)C(=O)N(CC1CC1)CN2C1c2ccccc2CCc2ccccc21 | 5.8 | 4.1 | Stability [3]: 100%; Stability [4]: 95.3%; bioavailability [5]: 8.2%; AUC [6]: 1.47 µM·h; half-life [7]: 1.5 h; fraction unbound [8]: 0.0136
15 | CN1CN(C2c3ccccc3CCc3ccccc32)n2cc(C(=O)O)c(=O)c(O)c2C1=O | 9.2 | 24 | –
16 | O=C(O)c1cn2c(c(O)c1=O)C(=O)N(CC1CCCCC1)CN2C1c2ccccc2CCc2ccccc21 | 20 | 15 | –
17 | Cc1ccc2c(c1)CCc1cc(C)ccc1C2N1CN(C(C)C)C(=O)c2c(O)c(=O)c(C(=O)O)cn21 | 34 | 13 | –
18 | O=C1c2c(O)c(=O)c(-c3noc(=O)[nH]3)cn2N(C2c3ccccc3CCc3ccccc32)CN1CC1CC1 | 189 | 119 | –
19 | O=C1c2c(O)c(=O)c(-c3nnn[nH]3)cn2N(C2c3ccccc3CCc3ccccc32)CN1CC1CC1 | > 1000 | 127 | –
20 | CC(C)N1CN(Cc2ccccc2)n2cc(C(=O)O)c(=O)c(O)c2C1=O | > 1000 | > 1000 | –
21 | NC(=O)c1ncn([C@@H]2O[C@H](CO)[C@@H](O)[C@H]2O)n1 [RIBAVIRIN] | 2500 | 3500 | –
